Laboratory results reported in article PMC6277767, “Broad and Region-Specific Impacts of the Synthetic Cannabinoid CP 55,940 in Adolescent and Adult Female Mouse Brains” (Frontiers in Molecular Neuroscience, 2018).

System: CD1 female mouse brain lipidome
Assay: Brain-region lipid levels (HPLC/MS/MS lipidomics) 2 h after single i.p. 3 mg/kg CP 55,940 vs vehicle
Type: in vivo
Method: The Bloomington Institutional Animal Care and Use Committee of Indiana University reviewed and approved the animal procedures. Female mice from the CD1 strain were utilized to match our study examining THC’s effects on the brain lipidome ([Leishman et al., 2018]). Mice were given a single i.p. injection of either 3 mg/kg CP or 1:1:18 cremophor:ethanol:saline vehicle (please refer to the section “3 mg/kg CP Is Relevant for Synthetic Cannabinoid Abuse and Has Stronger Effects on the Female Mouse Brain Lipidome During Adolescence” for a justification of dose and use of female mice). Three different age groups were given injections: PND 35 and PND 50 adolescents, and adult mice (PND 113). At least eight mice in each age group received CP and at least eight received vehicle. Matching the THC study time course ([Leishman et al., 2018]), mice were sacrificed via rapid decapitation 2 h after injection. Brains were immediately removed and flash-frozen in liquid nitrogen, and then stored at -80°C until dissections were performed. Brains were dissected on an ice-cold dissection plate into the following regions: STR, HIPP, CER, THAL, CTX, HYP, MID, and STEM. These abbreviations for these brain areas will be used exclusively when discussing the results generated by these specific dissections. Each dissected area was immediately placed in liquid nitrogen and then stored at -80°C until used for lipid extraction.
Tissue extracts were performed as previously described ([Bradshaw et al., 2006]; [Stuart et al., 2013]; [Raboune et al., 2014]; [Leishman et al., 2016a],[b], [2017], [2018]). First, samples were shock frozen in liquid nitrogen, weighed, and transferred to a centrifuge tube. The mass of the largest sample was multiplied by 50 to determine how many milliliters of HPLC-grade methanol (Fisher, Fair Lawn, NJ, United States) to add. Then, samples were spiked with 500 pmol deuterium-labeled NAGly (d8NAGly; Cayman Chemical, Ann Arbor, MI, United States). Samples were placed on ice in darkness for 2 h then individually homogenized and centrifuged at 19,000 × g for 20 min at 20°C. Supernatants were diluted with HPLC water (purified in house) to make a solution of 75% water, 25% supernatant. Lipids were partially purified on C18 solid phase extraction columns (Agilent, Palo Alto, CA, United States). A series of four elutions with 1.5 mL of 60%, 75%, 85%, and 100% methanol were collected ([Stuart et al., 2013]; [Leishman et al., 2016a],[b], [2018]).
As previously described ([Bradshaw et al., 2006]; [Tan et al., 2006]; [Smoum et al., 2010]; [Stuart et al., 2013]; [Tortoriello et al., 2013]; [Raboune et al., 2014]; [Leishman et al., 2016a],[b], [2017], [2018]), samples were analyzed using an Applied Biosystems API 3000 triple quadrupole mass spectrometer with electrospray ionization (Foster City, CA, United States). Using an Agilent XDB-C18 reversed phase analytical column and optimized mobile phase gradients, 20 μL from each elution were chromatographed. Two Shimadzu 10ADvp pumps (Columbia, MD, United States) provided the pressure for gradient elution. Mobile phase A: 20% methanol, 80% water (v/v) and 1 mM ammonium acetate (Sigma, St. Louis, MO, United States). Mobile phase B: 100% methanol, 1 mM ammonium acetate. Every method run began with 0% mobile phase B, reached 100% mobile phase B flowing at 0.2 mL/min, and gradually returned to 0% mobile phase B.
This screening library will be referred to as the lipidome when discussing data from this study. HPLC/MS/MS data were analyzed using Analyst software (Applied Biosystems) ([Bradshaw et al., 2006]; [Tan et al., 2006]; [Stuart et al., 2013]; [Tortoriello et al., 2013]; [Raboune et al., 2014]; [Leishman et al., 2016a],[b], [2017], [2018]). Chromatograms (Supplementary Figure 3) were generated by determining the retention time of analytes from the analytical column with a [M-1] or [M+1] parent peak and a fragmentation peak corresponding to the programmed values. […]

CCCCCCC(C)(C)c1ccc([C@@H]2C[C@H](O)CC[C@H]2CCCO)c(O)c1 [CP 55,940]
total changes in lipid levels across the eight regions (PND 35): 231
changes in lipid levels that were decreases (PND 35, eight regions): 152
2-arachidonoyl glycerol level vs vehicle (PND 35 CER): ↓ (1-1.49 times lower than vehicle)
2-linoleoyl glycerol level vs vehicle (PND 35 CER): ↓ (1-1.49 times lower than vehicle)
6-ketoPGF1α level vs vehicle (PND 35 CER): ↓↓ (1.50-1.99 times lower than vehicle)
Arachidonic acid level vs vehicle (PND 35 CER): ↓ (1-1.49 times lower than vehicle)
N-arachidonoyl GABA level vs vehicle (PND 35 CER): ↓ (1-1.49 times lower than vehicle)
N-arachidonoyl alanine level vs vehicle (PND 35 CER): ↓ (1-1.49 times lower than vehicle)
N-arachidonoyl glycine level vs vehicle (PND 35 CER): ↓ (1-1.49 times lower than vehicle)
N-arachidonoyl methionine level vs vehicle (PND 35 CER): ↓↓ (1.50-1.99 times lower than vehicle)
N-arachidonoyl serine level vs vehicle (PND 35 CER): ↓ (1-1.49 times lower than vehicle)
N-arachidonoyl taurine level vs vehicle (PND 35 CER): ↓ (1-1.49 times lower than vehicle)
N-arachidonoyl tyrosine level vs vehicle (PND 35 CER): ↓ (1-1.49 times lower than vehicle)
N-docosahexaenoyl GABA level vs vehicle (PND 35 CER): ↓ (1-1.49 times lower than vehicle)
N-docosahexaenoyl alanine level vs vehicle (PND 35 CER): ↓ (1-1.49 times lower than vehicle)
N-docosahexaenoyl glycine level vs vehicle (PND 35 CER): ↓ (1-1.49 times lower than vehicle)
N-docosahexaenoyl leucine level vs vehicle (PND 35 CER): ↑ (1-1.49 times higher than vehicle)
N-docosahexaenoyl serine level vs vehicle (PND 35 CER): ↓ (1-1.49 times lower than vehicle)
N-docosahexaenoyl tyrosine level vs vehicle (PND 35 CER): ↓ (1-1.49 times lower than vehicle)
N-linoleoyl glycine level vs vehicle (PND 35 CER): ↓ (1-1.49 times lower than vehicle)
N-linoleoyl leucine level vs vehicle (PND 35 CER): ↑ (1-1.49 times higher than vehicle)
N-linoleoyl phenylalanine level vs vehicle (PND 35 CER): ↑ (1-1.49 times higher than vehicle)
N-oleoyl GABA level vs vehicle (PND 35 CER): ↓ (1-1.49 times lower than vehicle)
N-oleoyl ethanolamine level vs vehicle (PND 35 CER): ↓ (1-1.49 times lower than vehicle)
N-oleoyl leucine level vs vehicle (PND 35 CER): ↑ (1-1.49 times higher than vehicle)
N-oleoyl phenylalanine level vs vehicle (PND 35 CER): ↑ (1-1.49 times higher than vehicle)
N-palmitoyl leucine level vs vehicle (PND 35 CER): ↑↑ (1.50-1.99 times higher than vehicle)
N-palmitoyl phenylalanine level vs vehicle (PND 35 CER): ↑ (1-1.49 times higher than vehicle)
N-palmitoyl proline level vs vehicle (PND 35 CER): ↓ (1-1.49 times lower than vehicle)
N-palmitoyl serine level vs vehicle (PND 35 CER): ↓ (1-1.49 times lower than vehicle)
N-palmitoyl tyrosine level vs vehicle (PND 35 CER): ↑ (1-1.49 times higher than vehicle)
N-palmitoyl valine level vs vehicle (PND 35 CER): ↑↑ (1.50-1.99 times higher than vehicle)
2-palmitoyl glycerol level vs vehicle (PND 35 CTX): ↑↑ (1.50-1.99 times higher than vehicle)
6-ketoPGF1α level vs vehicle (PND 35 CTX): ↓ (1-1.49 times lower than vehicle)
N- stearoyl valine level vs vehicle (PND 35 CTX): ↑ (1-1.49 times higher than vehicle)
N-arachidonoyl GABA level vs vehicle (PND 35 CTX): ↓ (1-1.49 times lower than vehicle)
N-arachidonoyl alanine level vs vehicle (PND 35 CTX): ↓ (1-1.49 times lower than vehicle)
N-arachidonoyl glycine level vs vehicle (PND 35 CTX): ↓ (1-1.49 times lower than vehicle)
N-arachidonoyl methionine level vs vehicle (PND 35 CTX): ↓↓ (1.50-1.99 times lower than vehicle)
N-arachidonoyl phenylalanine level vs vehicle (PND 35 CTX): ↓ (1-1.49 times lower than vehicle)
N-arachidonoyl serine level vs vehicle (PND 35 CTX): ↓ (1-1.49 times lower than vehicle)
N-arachidonoyl taurine level vs vehicle (PND 35 CTX): ↓ (1-1.49 times lower than vehicle)
N-arachidonoyl tyrosine level vs vehicle (PND 35 CTX): ↓ (1-1.49 times lower than vehicle)
N-docosahexaenoyl GABA level vs vehicle (PND 35 CTX): ↓ (1-1.49 times lower than vehicle)
N-docosahexaenoyl glycine level vs vehicle (PND 35 CTX): ↓ (1-1.49 times lower than vehicle)
N-docosahexaenoyl leucine level vs vehicle (PND 35 CTX): ↑↑ (1.50-1.99 times higher than vehicle)
N-docosahexaenoyl serine level vs vehicle (PND 35 CTX): ↓↓ (1.50-1.99 times lower than vehicle)
N-docosahexaenoyl valine level vs vehicle (PND 35 CTX): ↑ (1-1.49 times higher than vehicle)
N-linoleoyl GABA level vs vehicle (PND 35 CTX): ↓ (1-1.49 times lower than vehicle)
N-linoleoyl glycine level vs vehicle (PND 35 CTX): ↓ (1-1.49 times lower than vehicle)
N-oleoyl GABA level vs vehicle (PND 35 CTX): ↓ (1-1.49 times lower than vehicle)
N-oleoyl alanine level vs vehicle (PND 35 CTX): ↓ (1-1.49 times lower than vehicle)
N-oleoyl glycine level vs vehicle (PND 35 CTX): ↓ (1-1.49 times lower than vehicle)
N-oleoyl leucine level vs vehicle (PND 35 CTX): ↑ (1-1.49 times higher than vehicle)
N-oleoyl methionine level vs vehicle (PND 35 CTX): ↓ (1-1.49 times lower than vehicle)
N-oleoyl valine level vs vehicle (PND 35 CTX): ↑ (1-1.49 times higher than vehicle)
N-palmitoyl leucine level vs vehicle (PND 35 CTX): ↑↑ (1.50-1.99 times higher than vehicle)
N-palmitoyl serine level vs vehicle (PND 35 CTX): ↓ (1-1.49 times lower than vehicle)
N-palmitoyl tyrosine level vs vehicle (PND 35 CTX): ↑ (1-1.49 times higher than vehicle)
N-palmitoyl valine level vs vehicle (PND 35 CTX): ↑↑ (1.50-1.99 times higher than vehicle)
N-stearoyl serine level vs vehicle (PND 35 CTX): ↓ (1-1.49 times lower than vehicle)
N-stearoyl tyrosine level vs vehicle (PND 35 CTX): ↑ (1-1.49 times higher than vehicle)
PGF2α level vs vehicle (PND 35 CTX): ↑ (1-1.49 times higher than vehicle)
phosphoLEA level vs vehicle (PND 35 CTX): ↑↑ (1.50-1.99 times higher than vehicle)
2-arachidonoyl glycerol level vs vehicle (PND 35 HIPP): ↓ (1-1.49 times lower than vehicle)
2-linoleoyl glycerol level vs vehicle (PND 35 HIPP): ↓↓ (1.50-1.99 times lower than vehicle)
2-oleoyl glycerol level vs vehicle (PND 35 HIPP): ↓ (1-1.49 times lower than vehicle)
6-ketoPGF1α level vs vehicle (PND 35 HIPP): ↑ (1-1.49 times higher than vehicle)
Arachidonic acid level vs vehicle (PND 35 HIPP): ↓ (1-1.49 times lower than vehicle)
Linoleic acid level vs vehicle (PND 35 HIPP): ↓ (1-1.49 times lower than vehicle)
N- stearoyl valine level vs vehicle (PND 35 HIPP): ↑ (1-1.49 times higher than vehicle)
N-arachidonoyl GABA level vs vehicle (PND 35 HIPP): ↓↓ (1.50-1.99 times lower than vehicle)
N-arachidonoyl alanine level vs vehicle (PND 35 HIPP): ↓ (1-1.49 times lower than vehicle)
N-arachidonoyl ethanolamine level vs vehicle (PND 35 HIPP): ↓ (1-1.49 times lower than vehicle)
N-arachidonoyl glycine level vs vehicle (PND 35 HIPP): ↓ (1-1.49 times lower than vehicle)
N-arachidonoyl phenylalanine level vs vehicle (PND 35 HIPP): ↓ (1-1.49 times lower than vehicle)
N-arachidonoyl serine level vs vehicle (PND 35 HIPP): ↓↓↓ (2-2.99 times lower than vehicle)
N-arachidonoyl taurine level vs vehicle (PND 35 HIPP): ↓ (1-1.49 times lower than vehicle)
N-docosahexaenoyl GABA level vs vehicle (PND 35 HIPP): ↓↓ (1.50-1.99 times lower than vehicle)
N-docosahexaenoyl alanine level vs vehicle (PND 35 HIPP): ↓ (1-1.49 times lower than vehicle)
N-docosahexaenoyl ethanolamine level vs vehicle (PND 35 HIPP): ↓ (1-1.49 times lower than vehicle)
N-docosahexaenoyl glycine level vs vehicle (PND 35 HIPP): ↓ (1-1.49 times lower than vehicle)
N-docosahexaenoyl leucine level vs vehicle (PND 35 HIPP): ↑ (1-1.49 times higher than vehicle)
N-docosahexaenoyl serine level vs vehicle (PND 35 HIPP): ↓ (1-1.49 times lower than vehicle)
N-linoleoyl GABA level vs vehicle (PND 35 HIPP): ↓↓ (1.50-1.99 times lower than vehicle)
N-linoleoyl alanine level vs vehicle (PND 35 HIPP): ↓ (1-1.49 times lower than vehicle)
N-oleoyl GABA level vs vehicle (PND 35 HIPP): ↓↓ (1.50-1.99 times lower than vehicle)
N-oleoyl alanine level vs vehicle (PND 35 HIPP): ↓ (1-1.49 times lower than vehicle)
N-oleoyl ethanolamine level vs vehicle (PND 35 HIPP): ↓ (1-1.49 times lower than vehicle)
N-oleoyl glycine level vs vehicle (PND 35 HIPP): ↓ (1-1.49 times lower than vehicle)
N-oleoyl methionine level vs vehicle (PND 35 HIPP): ↓ (1-1.49 times lower than vehicle)
N-oleoyl valine level vs vehicle (PND 35 HIPP): ↑ (1-1.49 times higher than vehicle)
N-palmitoyl alanine level vs vehicle (PND 35 HIPP): ↓ (1-1.49 times lower than vehicle)
N-palmitoyl ethanolamine level vs vehicle (PND 35 HIPP): ↓ (1-1.49 times lower than vehicle)
N-palmitoyl leucine level vs vehicle (PND 35 HIPP): ↑ (1-1.49 times higher than vehicle)
N-palmitoyl phenylalanine level vs vehicle (PND 35 HIPP): ↑ (1-1.49 times higher than vehicle)
N-palmitoyl tyrosine level vs vehicle (PND 35 HIPP): ↑ (1-1.49 times higher than vehicle)
N-palmitoyl valine level vs vehicle (PND 35 HIPP): ↑ (1-1.49 times higher than vehicle)
N-stearoyl GABA level vs vehicle (PND 35 HIPP): ↓ (1-1.49 times lower than vehicle)
N-stearoyl alanine level vs vehicle (PND 35 HIPP): ↓ (1-1.49 times lower than vehicle)
N-stearoyl glycine level vs vehicle (PND 35 HIPP): ↓ (1-1.49 times lower than vehicle)
Oleic Acid level vs vehicle (PND 35 HIPP): ↓ (1-1.49 times lower than vehicle)
